{"source": "patent US10220069B2", "about": "“Compositions and methods for treating diabetes” (THE JOHNS HOPKINS UNIVERSITY, priority 2014, dated 2019)", "key": {"Kiss1 [1]": {"system": "Kiss1", "test": "Kiss1 expression in primary mouse hepatocytes", "assay_type": "cell-based", "conditions": "for Kiss1 expression / Pck1 expression: primary mouse hepatocytes, glucagon 200 pg/ml, insulin 2000 pg/ml; for Kiss1 expression: 2 hr", "experimental": "Cell Culture Studies. Mouse primary hepatocytes were isolated and cultured as described (He et al., 2009). H2.35 hepatoma cell line was cultured and transfected as described (He et al., 2009). 1 kb of the 5' untranslated region of the mouse Kiss1 gene were cloned by PCR into pGL4. The CRE half sites (TGCAT) within the promoter region were mutated by site directed mutagenesis to (TATGT). Luciferase activity was measured in cell lysates using a luminometer (Berthold) after treatment each for 2 hours with forskolin/IBMX (100 μM each) or glucagon (200 pg/ml) or/and insulin (2000 pg/ml). Dominant-negative A-CREB (Ahn et al., 1998) and WT CREB were from Addgene. Constitutively active CREB […] (Du et al., 2000) was generated by site directed mutagenesis of WT CREB. Glucagon Stimulates Hepatic Kiss1 Expression Via Gcgr and cAMP-PKA-CREB Signaling. We next examined whether glucagon directly stimulates hepatic kisspeptin1 production. Glucagon treatment (200 pg/ml) of primary mouse hepatocytes stimulated within 2 hr Kiss1 expression and protein (FIGS. 2A-2C)."}, "Kiss1 [2]": {"system": "Kiss1", "test": "ip insulin in L-Δprkar1a mice: hepatic Kiss1", "assay_type": "in vivo, mouse", "conditions": "1 IU/kg ip, within 60 min", "experimental": "Consistent with these observations of insulin counterregulation of PKA-mediated Kiss1 stimulation, in vivo ip insulin (1 IU/kg) administration in L-Δprkar1a mice to supplement relatively deficient endogenous serum insulin concentrations and to achieve blood glucose reduction, decreased hepatic Kiss1 mRNA and protein levels within 60 min (FIGS. 8I-8K)."}, "[3]": {"conditions": "intravenous bolus, circulating kisspeptin not measured; cited from earlier work"}, "GPR54 [4]": {"target": "T1, GPR54 (Mus musculus, UniProt Q91V45)", "T1 construct": "Mouse brain, mouse islets, insulinoma cells, and human islets express Kiss1R; from tissue; host or cells: isolated mouse pancreatic islets (WT / Kiss1Rfl/fl, C57Bl/6 background)", "T1 sequence (Q91V45 whole entry)": "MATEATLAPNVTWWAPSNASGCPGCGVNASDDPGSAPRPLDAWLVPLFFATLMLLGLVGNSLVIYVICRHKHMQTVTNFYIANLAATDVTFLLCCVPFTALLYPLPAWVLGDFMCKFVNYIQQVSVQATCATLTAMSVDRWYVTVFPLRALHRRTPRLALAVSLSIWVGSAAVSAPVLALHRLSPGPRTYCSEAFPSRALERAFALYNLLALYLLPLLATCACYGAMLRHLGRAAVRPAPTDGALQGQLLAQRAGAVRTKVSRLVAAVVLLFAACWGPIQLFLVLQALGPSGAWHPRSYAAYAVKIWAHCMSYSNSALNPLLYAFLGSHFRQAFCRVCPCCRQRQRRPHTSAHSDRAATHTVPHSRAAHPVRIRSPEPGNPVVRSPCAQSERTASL", "test": "GSIS from WT islets exposed to K10 or diabetic mouse serum with K234", "assay_type": "cell-based", "from_the_text": "(§1) Accordingly, based on the above outlined considerations on β-cell dysfunction and hyperglucagonemia, we reasoned that glucagon receptor-mediated signaling in the liver is required to initiate β-cell dysfunction and to impair glucose-stimulated insulin secretion. We therefore inducibly disinhibited cAMP-PKA signaling in vivo in adult mouse liver by ablating hepatic protein kinase A regulatory subunit 1A (prkar1a) by adenovirus mediated hepatic CRE recombinase transduction in floxed prkar1a mice (L-Δprkar1a mice) 14 (FIG. 22A). Upregulation of hepatic cAMP-PKA signaling within 3 days stimulated hepatic gluconeogenesis causing increase in fasting glucose levels and insufficient insulin secretion to correct glycemia. Conversely, identical baseline fasting glycemia achieved in mice by continuous exogenous glucose infusion for 3 days 15 (D-glucose mice) was associated with increased insulin secretion and relatively mild impairment of glucose tolerance despite continued exogenous glucose infusions (FIG. 22B). Differential hepatic gene expression analysis between these two mouse models identified the gene encoding the secreted neuropeptide kisspeptin-1 (Kiss1) to be markedly elevated (8× on mRNA array, 15× on qRT-PCR) in L-Δprkar1a but not in D-glucose mice (FIG. 22C). […] The kisspeptin receptor Gpr54 expression was detected at significant levels in pancreatic islets (FIG. 26). […]"}, "GPR54 [5]": {"target": "T1, GPR54", "test": "Glucose tolerance in db/db diabetic mice treated with K234", "assay_type": "in vivo", "from_the_text": "as §1"}, "mouse Kiss1 promoter": {"system": "mouse Kiss1 promoter", "test": "Kiss1 promoter luciferase reporter in H2.35 hepatoma cells", "assay_type": "cell-based", "conditions": "1 kb mouse Kiss1 promoter", "experimental": "Cell Culture Studies. Mouse primary hepatocytes were isolated and cultured as described (He et al., 2009). H2.35 hepatoma cell line was cultured and transfected as described (He et al., 2009). 1 kb of the 5' untranslated region of the mouse Kiss1 gene were cloned by PCR into pGL4. The CRE half sites ([…]) within the promoter region were mutated by site directed mutagenesis to (TATGT). Luciferase activity was measured in cell lysates using a luminometer (Berthold) after treatment each for 2 hours with forskolin/IBMX (100 μM each) or glucagon (200 pg/ml) or/and insulin (2000 pg/ml). Dominant-negative A-CREB (Ahn et al., 1998) and WT CREB were from Addgene. Constitutively active CREB […] (Du et al., 2000) was generated by site directed mutagenesis of WT CREB. […] The mouse Kiss1 promoter contains two putative functional cAMP response element (CRE) half-sites (TGACT) (Zhang et al., 2005) located at _127 and _758 bp upstream of the Kiss1 transcription start site. Mutation of either of the CRE half-sites decreased the transcriptional responses to glucagon or to fsk/IBMX, and combined mutation of both CRE half-sites further decreased the responses (FIG. 9A)."}, "Gcgr [6]": {"target": "T2, Gcgr (Mus musculus, UniProt Q61606)", "T2 construct": "endogenous in cells; host or cells: live mice (WT, Gcgrfl/fl, HFD-fed C57Bl/6, Lepr db/db); hepatic receptor", "T2 sequence (Q61606 27-485)": "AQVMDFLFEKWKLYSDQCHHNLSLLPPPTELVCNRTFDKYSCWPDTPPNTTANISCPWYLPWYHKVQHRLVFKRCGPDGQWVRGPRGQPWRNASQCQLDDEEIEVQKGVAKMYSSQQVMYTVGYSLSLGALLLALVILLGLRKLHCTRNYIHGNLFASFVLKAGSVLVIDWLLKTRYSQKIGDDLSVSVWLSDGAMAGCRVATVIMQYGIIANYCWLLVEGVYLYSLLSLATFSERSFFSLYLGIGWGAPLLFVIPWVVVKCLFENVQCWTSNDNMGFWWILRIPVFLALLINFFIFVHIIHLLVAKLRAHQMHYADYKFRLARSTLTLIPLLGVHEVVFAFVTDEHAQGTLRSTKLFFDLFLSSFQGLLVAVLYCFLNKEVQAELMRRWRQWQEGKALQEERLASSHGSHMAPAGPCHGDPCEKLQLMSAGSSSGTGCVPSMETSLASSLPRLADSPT", "test": "Intraperitoneal glucagon: hepatic kisspeptin1 production", "assay_type": "in vivo", "experimental": "(§2) Intraperitoneal glucose tolerance (ipGTT) and insulin tolerance (ipITT) tests were performed according to standard protocols (Song et al., 2013; Song et al., 2011). After 9 am-3 pm fasting, animals were administered 20% D-glucose (via ip injection), insulin 0.5 U/kg i.p. […] The glucagon receptor antagonist GAI (N-(3-Cyano-6-(1,1-dimethylpropyl)-4,5,6,7-tetrahydro-1-benzothien-2-yl)-2-ethylbutanamide (Qureshi et al., 2004) and its non-active analogue were administered (50 mg/kg i.p. in DMSO) in HFD fed and Lepr^db/db mice 60 min before i. GTT. Intraperitoneal pyruvate converstion (1 g/kg i.p.) test (ipPCT) in ΔL-Prkar1a mice was performed in the fed state (9 am) to avoid any confounding effects of fasting-induced elevated endogenous glucagon levels. Tail-vein blood was collected at the indicated times in figures for glucose and insulin measurements. Serum insulin was measured using mouse magnetic bead panel (Millipore, Luminex). Plasma for glucagon measurements was drawn from mice in the fed state at 9 am, unless otherwise noted for fasting studies. Plasma glucagon (Alpco) and kisspeptin1 (USCN Life Sciences Inc. E92559Ra) were measured by ELISA according to manufacturer's instructions including dilution of samples.\n(§3) Kiss1 transcript was also detectable by qRT-PCR at low levels in spleen, kidney, skeletal muscle, and epididymal fat tissue."}, "Gcgr [7]": {"system": "Gcgr", "test": "Intraperitoneal glucagon: hepatic kisspeptin1 production", "assay_type": "in vivo, mouse", "conditions": "mice lacking liver Gcgr, ip glucagon", "experimental": "as §2, §3"}}, "note": "Where no end group is shown, it is not given here."}
{"substance": "insulin", "values": [{"measurement": "glucagon stimulated Kiss1 and Pck1 expression", "setting": "Kiss1 [1]; mouse hepatocytes, insulin plus glucagon", "value": "dampened"}, {"measurement": "Kiss1 expression", "setting": "Kiss1 [1]", "value": "reduced basal Kiss1 expression"}, {"measurement": "Pck1 expression", "setting": "Kiss1 [1]", "value": "also reduced Pck1 expression"}, {"measurement": "hepatic Kiss1 mRNA and protein levels", "setting": "Kiss1 [2]", "value": "decreased"}]}
{"substance": "Tyr-Asn-Trp-Asn-Ser-Phe-Gly-Leu-Arg-Phe-NH2 (YNWNSFGLRF-NH2; listed as Homo sapiens) [K10, 10 amino acid C-terminal kisspeptin fragment, GPR54 agonist]", "values": [{"measurement": "GSIS", "setting": "[3]", "value": "stimulate GSIS"}]}
{"substance": "K234: GPR54 receptor antagonist, Kisspeptin derivative (SEQ ID NOS:36-37; Roseweir et al. 2009)", "values": [{"measurement": "impaired GSIS of WT islets exposed to diabetic serum", "setting": "GPR54 [4]; 10% serum from L-Δprkar1a, db/db and ob/ob mice, co-incubation with K234", "value": "recovered"}, {"measurement": "effects of K10 on islets (FIG. 27)", "setting": "GPR54 [4]; WT islets, K10 10 nM", "value": "counteracts effects of k10"}, {"measurement": "glucose tolerance", "setting": "GPR54 [5]", "value": "dramatic improvement in glucose tolerance"}]}
{"substance": "glucagon", "values": [{"measurement": "Kiss1 expression", "setting": "Kiss1 [1]", "value": "stimulated"}, {"measurement": "Pck1 expression", "setting": "Kiss1 [1]", "value": "also stimulated"}, {"measurement": "Kiss1 promoter luciferase reporter activity", "setting": "mouse Kiss1 promoter", "value": "transcriptional activation"}, {"measurement": "liver Kiss1 transcript and kisspeptin protein in L-ΔInsr mice", "setting": "Gcgr [6]; compared to Insrfl/fl mice", "value": "dramatically increased"}, {"measurement": "hepatic kisspeptin1 production", "setting": "Gcgr [6]; mice, 16 mg/kg ip, 30 min after injection, versus PBS", "value": "increased hepatic kisspeptin1 production"}, {"measurement": "kisspeptin production in L-ΔGcgr mice", "setting": "Gcgr [7]", "value": "did not change"}]}
